From patent publication US6992193B2, “Sulfonylamino phenylacetamide derivatives and methods of their use” (Adolor Corporation, priority 2003, dated 2006)
Counter-ions that a name gives are not always drawn. Like-named read-outs stand apart in the source and are kept apart here.

Tests used:
[1] = biological target: T1, cloned human μ opioid receptor (Homo sapiens, UniProt P35372); assay: [3H]diprenorphine binding to cloned human μ opioid receptor
T1 construct: expressed in transfected cells
Experimental: (§1) IC50 values were obtained by nonlinear analysis of the data using GraphPad Prism version 3.00 for Windows (GraphPad Software, San Diego). Ki values were obtained by Cheng-Prusoff corrections of IC50 values.
(§2) After dilution in buffer A and homogenization as before, membrane proteins (10-80 μg) in 250 μL were added to mixtures containing test compound and [^3H]diprenorphine (0.5 to 1.0 nM, 40,000 to 50,000 dpm) in 250 μL of buffer A in 96-well deep-well polystyrene titer plates (Beckman). After incubation at room temperature for one hour, the samples were filtered through GF/B filters that had been presoaked in a solution of 0.5% (w/v) polyethylenimine and 0.1% (w/v) bovine serum albumin in water. The filters were rinsed 4 times with 1 mL of cold 50 mM Tris HCl, pH 7.8 and radioactivity remaining on the filters determined by scintillation spectroscopy. Nonspecific binding was determined by the minimum values of the titration curves and was confirmed by separate assay wells containing 10 μM naloxone.
(§3) To determine the equilibrium dissociation constant for the inhibitors (Ki), radioligand bound (cpm) in the presence of various concentrations of test compounds was measured. […] The nonlinear regression fit was performed using the program Prism® (GraphPad Software, San Diego, Calif.). The Ki values were then determined from the […] values by the following equation, [formula] • where [ligand] is the concentration of radioligand; and • Kd is the equilibrium dissociation constant for the radioligand.

[2] = biological target: T2, cloned human δ opioid receptor (Homo sapiens, UniProt P41143); assay: [3H]diprenorphine binding to cloned human δ opioid receptor
T2 construct: expressed in transfected cells
Experimental: as §1, §2, §3

[3] = biological target: T3, CYP2D6 (Homo sapiens, UniProt P10635); assay: Inhibition of CYP2D6 catalyzed conversion of MAMC to HAMC; format: in vitro ADME
T3 construct: purchased BD Biosciences
Experimental: Inhibition of CYP2D6 Catalyzed Conversion of MAMC to HAMC
Microsomes containing baculovirus expressed human recombinant CYP2D6 and MAMC were purchased from BD Biosciences. The method is a modification of the method provided by BD Biosciences.
• Assay Buffer=50 mM KPO4, 15 μg/mL NADP^+, 0.30 mg/mL glucose-6-phosphate, 0.20 mg/mL MgCl2, 0.96 U/mL glucose-6-phosphate dehydrogenase, 2.5 μM MAMC, pH 7.4. • Dilution Buffer=50 mM KPO4, pH 7.4 • Enzyme Buffer=150 mM KPO4, pH 7.4 • Stop Solution=80% acetonitrile, 20% 0.5 M Tris Base Procedure:
The assays were done in black 96 well plates (VWR Cat# 22221-572) and contained: 40 μL assay buffer, 10 μL test compound in dilution buffer and 50 μL of 10-15 pmol/mL CYP2D6 in enzyme buffer. Final concentrations: (100 mM KPO4, pH 7.4, 7.9 μM NADP^+, 0.36 mM glucose-6-phosphate, 0.4 mM MgCl2, 0.38 U/mL glucose-6-phosphate dehydrogenase, 1 μM MAMC (BD Biosciences), 0.5 pmol CYP2D6 (BD Biosciences))
For large experiments, assay buffer and test compound were added using the MiniTrak IV (Packard Biosciences), otherwise they were added using 25-250 μL and 5-100 μL 8 channel electronic pipettors (BioHit). CYP2D6 was added using 25-250 μL 8 channel electronic pipettor.
Titrations are done in either 96 well deep-well plates (Beckman) or 96 well microtiter plates (Costar), an initial dilution in dilution buffer is prepared from stock solutions in DMSO to start either 8 (1:6) or 12 (1:3.15) serial dilutions. For 1:6 dilutions, 50 μL for each dilution is transferred to 250 μL dilution buffer. For 1:3.15 dilutions, 50 μL for each dilution is transferred to 108 μL dilution buffer. Further details on concentrations will be provided in each experiment. Titrations are done using either 25-250 μL 8 channel electronic pipettor, 30-300 μL 12 channel manual pipettor (Spectrum), or the Multiprobe II. For screening, dilution plates are prepared in dilution buffer in 96 well microtiter plates from masterplates in 100% DMSO using the Multiprobe II or MiniTrak IV. After assay buffer and test compound has been added, the plates and the enzyme buffer are prewarmed at 37° C. for 15 minutes. After prewarming, CYP2D6 is added to then enzyme buffer and then added to the assay plate using 25-250 μL 8 channel electronic pipettor and the plates are incubated for 15 minutes at 37° C. After incubation, 50 μL stop solution is added using 25-250 μL 8 channel electronic pipettor. The plates are then counted on the Fusion (Packard Biosciences) for 4 sec/well using and excitation filter of 390 nm and an emission filter of 460 nm, intensity setting of 1, high detector sensitivity.
Non-specific relative fluorescent units (RFU) are determined in the presence of 10 μM quinidine in wells A1, B1, and C1 of each plate and total RFU determined in wells D1, E1, F1 in the absence of test compound. Specific HAMC production is the difference between total and nonspecific. For each compound, a percent inhibition of HAMC production is calculated by: % I=(1−(A/B))*100 • where A=cpm specifically bound for test compound • B=cpm specifically bound in the absence of test compound For experiments where the plates are registered in the biological database, % I is determined automatically by the biological database. Titrations
IC50's are calculated using nonlinear regression to a one-site model using GraphPad Prism or a VB algorithm fitting the data to that equation.

[4] = biological target: CYP2C9 (Homo sapiens, UniProt P11712); assay: Inhibition of CYP2C9 conversion of dibenzylfluorescein to fluorescein; format: in vitro ADME
Experimental: (§4) Inhibition of CYP2C9 and CYP3A4
(§5) These assays were carried out as described using CYP2C9 and CYP3A4 conversion of dibenzylfluorescein (DBF) to fluorescein (F).

[5] = biological target: CYP3A4 (Homo sapiens, UniProt P08684); assay: Inhibition of CYP3A4 conversion of dibenzylfluorescein to fluorescein; format: in vitro ADME
Experimental: as §4, §5

[6] = tested on: cytochrome P450 enzymes (CYP2D6, CYP3A4, CYP2C9); assay: Overall evaluation of inhibition of major drug metabolizing hepatic cytochrome P450 enzymes; format: in vitro ADME, human
[7] = inhibition of [3H]diprenorphine binding, cloned human μ receptor, read-out: Ki(μ)
[8] = DBF to fluorescein conversion, read-out: IC50(CYP2C9)
[9] = DBF to fluorescein conversion, read-out: IC50(CYP3A4)
[10] = inhibition of [3H]diprenorphine binding, cloned human δ receptor, read-out: Ki(δ)
[11] = MAMC to HAMC conversion, read-out: IC50(CYP2D6)

T3 sequence (P10635 whole entry): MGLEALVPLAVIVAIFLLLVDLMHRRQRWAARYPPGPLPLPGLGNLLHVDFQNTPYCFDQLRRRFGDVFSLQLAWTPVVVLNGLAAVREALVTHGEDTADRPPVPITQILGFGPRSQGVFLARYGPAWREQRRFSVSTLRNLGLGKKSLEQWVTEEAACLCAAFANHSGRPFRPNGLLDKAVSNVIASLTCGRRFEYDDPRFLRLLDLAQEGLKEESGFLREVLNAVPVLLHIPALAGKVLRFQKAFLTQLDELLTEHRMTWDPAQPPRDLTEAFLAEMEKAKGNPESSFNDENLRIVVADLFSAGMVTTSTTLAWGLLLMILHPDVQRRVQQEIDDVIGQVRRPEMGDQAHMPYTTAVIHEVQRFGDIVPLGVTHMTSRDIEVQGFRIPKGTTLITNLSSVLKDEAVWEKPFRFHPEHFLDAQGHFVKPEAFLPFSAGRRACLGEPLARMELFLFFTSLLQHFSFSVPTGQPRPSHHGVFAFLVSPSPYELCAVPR
T1 sequence (P35372 whole entry): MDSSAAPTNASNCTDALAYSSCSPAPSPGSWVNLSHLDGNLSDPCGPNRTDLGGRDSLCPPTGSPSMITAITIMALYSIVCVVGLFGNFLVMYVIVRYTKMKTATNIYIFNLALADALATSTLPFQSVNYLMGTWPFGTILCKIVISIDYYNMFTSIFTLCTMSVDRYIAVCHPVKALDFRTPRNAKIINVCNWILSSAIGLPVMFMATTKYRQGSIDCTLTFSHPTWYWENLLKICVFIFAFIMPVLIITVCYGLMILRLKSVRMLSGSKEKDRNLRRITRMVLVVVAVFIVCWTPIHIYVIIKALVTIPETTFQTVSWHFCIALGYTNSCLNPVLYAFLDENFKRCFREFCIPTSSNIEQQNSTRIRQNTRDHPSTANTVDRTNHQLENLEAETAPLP
CYP3A4, sequence (P08684 whole entry): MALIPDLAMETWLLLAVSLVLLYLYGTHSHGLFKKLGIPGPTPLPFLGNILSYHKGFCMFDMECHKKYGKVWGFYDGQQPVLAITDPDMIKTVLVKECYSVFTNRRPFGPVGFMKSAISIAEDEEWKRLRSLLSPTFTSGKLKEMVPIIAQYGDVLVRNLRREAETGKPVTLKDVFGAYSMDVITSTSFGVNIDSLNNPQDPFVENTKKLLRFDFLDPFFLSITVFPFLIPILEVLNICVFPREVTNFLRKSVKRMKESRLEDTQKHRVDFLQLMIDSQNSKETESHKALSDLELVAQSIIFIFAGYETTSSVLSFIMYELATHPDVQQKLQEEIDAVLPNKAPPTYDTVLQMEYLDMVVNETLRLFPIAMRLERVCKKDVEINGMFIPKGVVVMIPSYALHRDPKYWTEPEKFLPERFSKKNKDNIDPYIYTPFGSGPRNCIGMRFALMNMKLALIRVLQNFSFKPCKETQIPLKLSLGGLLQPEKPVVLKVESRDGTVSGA
T2 sequence (P41143 whole entry): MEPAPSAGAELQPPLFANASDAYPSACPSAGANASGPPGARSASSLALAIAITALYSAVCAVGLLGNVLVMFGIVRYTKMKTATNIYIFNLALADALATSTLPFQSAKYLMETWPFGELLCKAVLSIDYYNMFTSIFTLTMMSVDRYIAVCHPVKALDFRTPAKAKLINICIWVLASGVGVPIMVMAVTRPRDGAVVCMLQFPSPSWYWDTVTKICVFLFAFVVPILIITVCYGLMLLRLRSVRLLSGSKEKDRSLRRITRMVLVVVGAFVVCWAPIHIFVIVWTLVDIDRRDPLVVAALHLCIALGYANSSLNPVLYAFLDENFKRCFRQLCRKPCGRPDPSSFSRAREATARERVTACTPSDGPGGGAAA
CYP2C9, sequence (P11712 whole entry): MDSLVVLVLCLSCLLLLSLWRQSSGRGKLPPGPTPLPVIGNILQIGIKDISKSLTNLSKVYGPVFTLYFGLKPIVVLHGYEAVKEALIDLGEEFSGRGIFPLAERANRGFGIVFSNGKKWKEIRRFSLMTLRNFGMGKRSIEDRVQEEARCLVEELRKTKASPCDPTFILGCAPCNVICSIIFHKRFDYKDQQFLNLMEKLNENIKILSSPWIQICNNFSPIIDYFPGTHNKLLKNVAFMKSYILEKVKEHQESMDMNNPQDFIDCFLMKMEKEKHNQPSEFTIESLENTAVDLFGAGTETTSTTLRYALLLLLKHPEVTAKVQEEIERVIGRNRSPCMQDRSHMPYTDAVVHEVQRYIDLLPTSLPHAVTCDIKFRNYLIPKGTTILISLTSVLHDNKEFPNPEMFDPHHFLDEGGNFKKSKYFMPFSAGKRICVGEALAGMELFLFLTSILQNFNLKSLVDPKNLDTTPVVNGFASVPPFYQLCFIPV

| Structure (SMILES) | Ki [1, 7] | Ki [2] | IC50 at 15 min ([3]; human, pH 7.4, probe MAMC (1 µM), MAMC to HAMC conversion) | IC50 [4, 8] | IC50 [5, 9] | activity toward the cytochrome P450 (summary in words) [6] | Ki [1] | Ki [2, 10] | IC50 [3, 11] | IC50 [3] | IC50 [4] | IC50 [5] |
| --- | --- | --- | --- | --- | --- | --- | --- | --- | --- | --- | --- | --- |
| CN(C(=O)Cc1ccc(CCNS(C)(=O)=O)cc1)[C@H](CN1CC[C@H](O)C1)c1ccccc1.Cl [Example 26, N-{2-[3-(S)-hydroxy-pyrrolidin-1-yl]-1-(S)-phenyl-ethyl}-2-[4-(2-methanesulfonylamino-ethyl)-phenyl]-N-methyl-acetamide hydrochloride] | 790 nM | 110 nM | 10000 nM | > 10000 nM | > 10000 nM | metabolically stable in regard to their activity toward the cytochrome P450 |  |  |  |  |  |  |
| CCS(=O)(=O)NCc1ccc(CC(=O)N(C)[C@H](CN2CC[C@H](O)C2)c2ccccc2)cc1.Cl [Example 14, 2-[4-(ethanesulfonylamino-methyl)-phenyl]-N-{2-[3-(S)-hydroxy-pyrrolidin-1-yl]-1-(S)-phenyl-ethyl}-N-methyl-acetamide hydrochloride] |  |  |  | > 10000 nM | > 10000 nM | metabolically stable in regard to their activity toward the cytochrome P450 | 1000 nM | 510 nM | > 10000 nM |  |  |  |
| CC(C)S(=O)(=O)NCc1ccc(CC(=O)N(C)[C@H](CN2CC[C@H](O)C2)c2ccccc2)cc1.Cl [Example 15, N-{2-[3-(S)-hydroxy-pyrrolidin-1-yl]-1-(S)-phenyl-ethyl}-N-methyl-2-{4-[(propane-2-sulfonylamino)-methyl]-phenyl}-acetamide hydrochloride] | 1100 nM |  |  | > 10000 nM | > 10000 nM | metabolically stable in regard to their activity toward the cytochrome P450 |  | 470 nM | > 10000 nM |  |  |  |
| CN(C(=O)Cc1ccc(CNS(=O)(=O)c2ccccc2)cc1)[C@H](CN1CC[C@H](O)C1)c1ccccc1 [Example 18, 2-[4-(benzenesulfonylamino-methyl)-phenyl]-N-{2-[3-(S)-hydroxy-pyrrolidin-1-yl]-1-(S)-phenyl-ethyl}-N-methyl-acetamide hydrochloride] | 880 nM |  |  | 8000 nM | 4300 nM |  |  | 83 nM | 3400 nM |  |  |  |
| Cc1ccc(S(=O)(=O)NCc2ccc(CC(=O)N(C)[C@H](CN3CC[C@H](O)C3)c3ccccc3)cc2)cc1 [Example 20, N-{2-[3-(S)-hydroxy-pyrrolidin-1-yl]-1-(S)-phenyl-ethyl}-N-methyl-2-{4-[(toluene-4-sulfonylamino)-methyl]-phenyl}-acetamide hydrochloride] | 700 nM | 28 nM |  | > 10000 nM | > 10000 nM |  |  |  | 4900 nM |  |  |  |
| CCCCS(=O)(=O)NCc1ccc(CC(=O)N(C)[C@H](CN2CC[C@H](O)C2)c2ccccc2)cc1 [Example 17, 2-{4-[(butane-1-sulfonylamino)-methyl]-phenyl}-N-{2-[3-(S)-hydroxy-pyrrolidin-1-yl]-1-(S)-phenyl-ethyl}-N-methyl-acetamide hydrochloride] |  | 170 nM |  | > 10000 nM | 7000 nM |  | 1000 nM |  | 7200 nM |  |  |  |
| CN(C(=O)Cc1ccc(CNS(=O)(=O)c2ccc(F)cc2)cc1)[C@H](CN1CC[C@H](O)C1)c1ccccc1 [Example 19, 2-{4-[(4-fluoro-benzenesulfonylamino)-methyl]-phenyl}-N-{2-[3-(S)-hydroxy-pyrrolidin-1-yl]-1-(S)-phenyl-ethyl}-N-methyl-acetamide hydrochloride] |  | 64 nM |  | > 10000 nM | 2900 nM |  | 1100 nM |  | 6300 nM |  |  |  |
| CN(C(=O)Cc1ccc(CNS(C)(=O)=O)cc1)[C@H](CN1CC[C@H](O)C1)c1ccccc1 [Example 13, N-{2-[3-(S)-hydroxy-pyrrolidin-1-yl]-1-(S)-phenyl-ethyl}-2-[4-(methanesulfonylamino-methyl)-phenyl]-N-methyl-acetamide hydrochloride] |  | 190 nM |  | > 10000 nM | > 10000 nM |  | 140 nM |  | 9300 nM |  |  |  |
| CN(C(=O)Cc1ccc(CNS(C)(=O)=O)cc1)[C@H](CN1CCCC1)c1ccccc1 [Example 12, 2-[4-(methanesulfonylamino-methyl)-phenyl]-N-methyl-N-[1-(S)-phenyl-2-pyrrolidin-1-yl-ethyl]-acetamide] |  | > 3000 nM |  |  |  |  | 470 nM |  |  | 12000 nM | > 10000 nM | > 10000 nM |
| CN(C(=O)Cc1cccc(CNS(C)(=O)=O)c1)[C@H](CN1CCCC1)c1ccccc1 [Example 11, 2-[3-(methanesulfonylamino-methyl)-phenyl]-N-methyl-N-[1-(S)-phenyl-2-pyrrolidin-1-yl-ethyl]-acetamide hydrochloride] | 1900 nM |  |  |  | > 10000 nM |  |  | 1500 nM | 1400 nM |  |  |  |
| CN(C(=O)Cc1ccc(NS(C)(=O)=O)cc1)[C@H](CN1CC[C@H](O)C1)c1ccccc1 [Example 25, N-{2-[3-(S)-hydroxy-pyrrolidin-1-yl]-1-(S)-phenyl-ethyl}-2-(4-methanesulfonylamino-phenyl)-N-methyl-acetamide hydrochloride] |  | 180 nM |  |  | > 10000 nM |  | 100 nM |  | 4900 nM |  |  |  |
| CN(C(=O)Cc1ccc(CNS(=O)(=O)Cc2ccccc2)cc1)[C@H](CN1CC[C@H](O)C1)c1ccccc1 [Example 21, N-{2-[3-(S)-hydroxy-pyrrolidin-1-yl]-1-(S)-phenyl-ethyl}-N-methyl-2-[4-(phenylmethanesulfonylamino-methyl)-phenyl]-acetamide hydrochloride] | 480 nM | 170 nM |  | > 10000 nM | 5600 nM |  |  |  | 5300 nM |  |  |  |
